The results in this text go back to US20120035244A1, “PARP1 TARGETED THERAPY” (THE REGENTS OF THE UNIVERSITY OF MICHIGAN, priority 2010, published 2012).

Entries after “also recorded” stand apart in the source; their conditions may differ.

Data set [1] deals with ERG target genes in VCaP cells. The data set is described as follows: qPCR analysis of ERG-target genes in VCaP cells. As to conditions: siRNA or drug for 48 hours. The format is cell-based, human. Here is the method:
Total RNA was isolated from VCAP, RWPE or PrEC cells that were transfected with siRNA as indicated (Qiagen). Quantitative PCR (QPCR) was performed using SYBR Green dye on an Applied Biosystems 7300 Real Time PCR system (Applied Biosystems, Foster City, Calif.) as described (Tomlins, S. A., et al. Science (New York, N.Y. 310, 644-648 (2005)). Briefly, 1 μg of total RNA was reverse transcribed into cDNA using SuperScript 111 (Invitrogen, Carlsbad, Calif.) in the presence of random primers (Invitrogen). All reactions were performed in triplicate with SYBR Green Master Mix (Applied Biosystems) plus 25 ng of both the forward and reverse primer according to the manufacturer's recommended thermocycling conditions, and then subjected to melt curve analysis. […] The relative quantity of the target gene was completed for each sample using the ΔΔCt method by the comparing mean Ct of the gene to the average Ct of the housekeeping gene, β-Actin8. […] The primer sequences for the transcript analyzed were either previously described (Tomlins et al., 2008, supra) or are provided in Table 4.
Total RNA was isolated from VCAP, RWPE or PrEC cells that were transfected with siRNA as indicated (Qiagen). […] The relative quantity of the target gene was completed for each sample using the ΔΔCt method by the comparing mean Ct of the gene to the average Ct of the housekeeping gene, β-Actin8. […]
(In general: Real-time PCR tracks product formation cycle by cycle.)

A further data set concerns PC3. The data set is described as follows: Basement membrane matrix invasion assay, PC3 cells. The class given is cell-based, human.
The subject of another data set is VCaP. The data set is described as follows: CAM xenograft tumor weight, VCaP. As to conditions: extended Olaparib treatment, P<0.05. The class given is in vivo, chicken embryo. On the procedure: The CAM assay was performed as described previously (Zijlstra, A., et al., Cancer research 62, 7083-7092 (2002)). Briefly, fertilized eggs were incubated in a rotary humidified incubator at 38° C. with for 10 days. After releasing the CAM by applying mild amount of low pressure to the hole over the air sac and cutting a square 1-cm^2 window encompassing a second hole near the allantoic vein, cultured human cells that had been pre-treated with siRNA as indicated were detached by trypsinization and re-suspended in complete medium prior to implantation of 2×10^6 cells adjacent to the mesenchyme in each egg. The windows were subsequently, sealed and the eggs were returned to a stationary incubator. Cells were then treated as indicated with 40 mg/kg body weight Olaparib which was administered on day 13, 15 and 17. Day 18 embryos were sacrificed. Tumors were then excised and weighed. […] After incubation of either the metastasis or intravasation assays, the extra-embryonic tumor and CAM, as well as the embryonic liver were harvested and analyzed for the presence of tumor cells by quantitative human alu-specific PCR. […] Quantification of human cells in the extracted DNA was done as described^14. Fluorogenic TaqMan qPCR probes were applied as above, and DNA copy numbers were quantified.

For a further data set, the system named is VCaP xenografts. The data set is described as follows: VCaP mouse xenograft model. The format is in vivo, mice. An excerpt:
(§1) Olaparib was obtained from Axon Medchem (Groningen, The Netherlands).

The next data set has as its system 22RV1 xenografts. Briefly: 22RV1 mouse xenograft model. The class given is in vivo, mice. As to conditions: 22RV1 (ETS negative), Olaparib.
Text: as §1

The test system of another data set is PC3-ERG xenografts. The data set is described as follows: PC3-ERG mouse xenograft model. Particulars: P=0.007 for PARP inhibition.

Method for PC3-ERG xenografts: Four weeks old male Balb C nu/nu mice were purchased from Charles River, Inc. (Charles River Laboratory, Wilmington, Mass.). VCaP (2×10^6 cells), PC3-luciferase-control (1×10^5 cells) or PC3-luciferase-ERG (1×10^5 cells) stable cells were resuspended in 100 μl of saline with 50% Matrigel (BD Biosciences, Becton Drive, NJ) and were implanted subcutaneously into the left flank region of the mice. Mice were anesthetized using a cocktail of xylazine (80-120 mg/kg, IP) and ketamine (10 mg/kg, IP) for chemical restraint before tumor implantation. All tumors were staged for three week before starting the drug treatment. After week 3 for VCaP cells or after 48 hours for PC3 cells, mice (10 per treatment group) were treated with NU7026 (25 mg/kg, IP), Olaparib (40 mg/kg, IP) daily five times a week. Olaparib was obtained from Axon Medchem (Groningen, The Netherlands). Growth in tumor volume was recorded weekly by using digital calipers and tumor volumes were calculated using the formula (π/6) (L×W2), where L=length of tumor and W=width. Loss of body weight during the course of the study was also monitored weekly.

As to `O=C(c1cc(Cc2n[nH]c(=O)c3ccccc23)ccc1F)N1CCN(C(=O)C2CC2)CC1` [Olaparib, 4-[3-(4-Cyclopropanecarbonylpiperazine-1-carbonyl)-4-fluorobenzyl]-2H-phthalazin-1-one], the “expression of the ERG target genes (qPCR)” value in data set [1] is “confirmed gene expression changes as predicted by the gene expression arrays; also recorded: altered expression of the ERG target genes”. Besides, in the data set with PC3, the “invasion of PC3 (ETS rearrangement negative control)” value is reported as “does now effect invasion”. In the data set with VCaP, the “tumor size (weight) on CAM” value was “significantly smaller”. In the data set on VCaP xenografts (Olaparib), the “dose dependence of VCaP tumor growth response” value is given as “dose dependent”. Also, the “tumor growth relative to the vehicle control” value in the data set on VCaP xenografts (VCaP, Olaparib 40 mg/kg/day IP (P=0.001), NU7026 25 mg/kg/day IP (p=0.004)) is “significant reduction of tumor growth”. Also, the results for the xenograft growth entry in the data set with 22RV1 xenografts and in the data set with PC3-ERG xenografts were “not responsive; also recorded: did not inhibit the growth” and “significantly sensitize the PC3 cells to PARP inhibition”, respectively.
